We go through 29 molecules from patent publication US9040516B2, “Uracil derivative and use thereof for medical purposes” (SUMITOMO DAINIPPON PHARMA CO., LTD., priority 2011, dated 2015).

The target of this assay is T1, human neutrophil elastase (Homo sapiens, UniProt P08246).
T1 construct: purchased Elastin Products Company
T1 sequence (P08246 30-267): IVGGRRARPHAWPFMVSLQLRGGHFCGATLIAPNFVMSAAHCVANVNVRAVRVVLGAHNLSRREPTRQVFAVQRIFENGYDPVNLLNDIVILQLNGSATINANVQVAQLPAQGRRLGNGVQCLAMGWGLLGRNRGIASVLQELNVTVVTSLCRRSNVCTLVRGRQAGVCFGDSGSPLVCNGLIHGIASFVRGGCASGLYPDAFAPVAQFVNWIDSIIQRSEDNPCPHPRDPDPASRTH
The assay is described as follows: Inhibitory action 2 against human neutrophil elastase (Test Example 2; fluorogenic substrate MeOSuc-AAPV-AMC, buffer with 400 mM NaCl, 0.2 mg/ml BSA). Format: biochemical. Particulars: 37° C., read-out: IC50 value (compound concentration required for 50% inhibition of human neutrophil elastase). The procedure:
Assay buffer (0.4 unit/ml HNE (human neutrophil elastase, available from Elastin Products Company), 200 mM HEPES [N-(2-hydroxyethyl)piperazine-N′-(2-ethanesulfonic acid)], pH 7.5, 400 mM NaCl, 0.2 mg/ml BSA (bovine serum albumin)) 100 μl, water for injection 20 μl and 1% DMSO (dimethyl sulfoxide) solution of the present compound 20 μl were mixed in a 96 well plate and the mixed solutions were pre-incubated at 37° C. for five minutes. After pre-incubation, MeOSuc-AAPV-AMC (methoxysuccinyl-alanyl-alanyl-prolyl-valyl-aminomethyl cumaride (available from Sigma Aldrich Corp.) solution as fluorogenic substrate (which was dissolved in 10% DMSO solution so as to adjust to 0.5 mM) 40 μl was added to the above-prepared mixed solution so as to initiate the reaction, and the mixture was incubated at 37° C. for five minutes. The fluorescence intensity of AMC was measured at an excitation wavelength of 380 nm and a fluorescence wavelength of 460 nm and the inhibition ratio was determined.

For `Cc1c(-c2c(S(C)(=O)=O)cnn2-c2ccc(C#N)cc2)c(=O)n(C(C)C)c(=O)n1-c1cccc(C(F)(F)F)c1` (racemic) [Example 276, (±)-4-(5-(3-Isopropyl-6-methyl-2,4-dioxo-1-(3-trifluoromethylphenyl)-1,2,3,4-tetrahydropyrimidin-5-yl-4-(methylsulfonyl)-1H-pyrazol-1-yl)benzonitrile], the IC50 turned out to be 12 nM.
As to `Cc1c(-c2c(S(N)(=O)=O)cnn2-c2ccc(C#N)cc2)c(=O)n(C)c(=O)n1-c1cccc(C(F)(F)F)c1` (single isomer, unassigned) [Example 209, (+)-1-(4-cyanophenyl)-5-(3,6-dimethyl-2,4-dioxo-1-(3-trifluoromethylphenyl)-1,2,3,4-tetrahydropyrimidin-5-yl)-1H-pyrazole-4-sulfonamide], the IC50 worked out at 9.3 nM.
On to `Cc1c(-c2c(S(C)(=O)=O)cnn2-c2ccc(C#N)cc2)c(=O)n(C)c(=O)n1-c1cccc(C(F)(F)F)c1` (single isomer, unassigned) [Example 267], for which the IC50 is 11.6 nM.
Regarding `CCn1c(=O)c(-c2ccnn2-c2ccc(C#N)cc2)c(C)n(-c2cccc(C(F)(F)F)c2)c1=O` [Example 41, 4-(5-(3-ethyl-6-methyl-2,4-dioxo-1-(3-(trifluoromethyl)phenyl)-1,2,3,4-tetrahydropyrimidin-5-yl)-1H-pyrazol-1-yl)benzonitrile], the IC50 worked out at 12.6 nM.
Take `Cc1c(-c2ccnn2-c2ccc(C#N)cc2)c(=O)n(C(C)C)c(=O)n1-c1cccc(C(F)(F)F)c1` [Example 42, 4-(5-(3-isopropyl-6-methyl-2,4-dioxo-1-(3-(trifluoromethyl)phenyl)-1,2,3,4-tetrahydropyrimidin-5-yl)-1H-pyrazol-1-yl)benzonitrile]: the IC50 turned out to be 3.5 nM.
With `CCc1c(-c2ccnn2-c2ccc(C#N)cc2)c(=O)n(C)c(=O)n1-c1cccc(C(F)(F)F)c1` [Example 50, 4-(5-(6-ethyl-3-methyl-2,4-dioxo-1-(3-(trifluoromethyl)phenyl)-1,2,3,4-tetrahydropyrimidin-5-yl)-1H-pyrazol-1-yl)benzonitrile] the figure was 13.7 nM; with `Cc1c(-c2ccnn2-c2ccc(C#N)cc2)c(=O)n([C@H](C)CO)c(=O)n1-c1cccc(C(F)(F)F)c1` [Example 55, (R)-4-(5-(3-(1-hydroxypropan-2-yl)-6-methyl-2,4-dioxo-1-(3-(trifluoromethyl)phenyl)-1,2,3,4-tetrahydropyrimidin-5-yl)-1H-pyrazol-1-yl)benzonitrile], 4.9 nM.
Consider `Cc1c(-n2cnnc2-c2ccc(C#N)cc2)c(=O)n(C(C)C)c(=O)n1-c1cccc(C(F)(F)F)c1` [Example 65, 4-(4-(3-Isopropyl-6-methyl-2,4-dioxo-1-(3-(trifluoromethyl)phenyl)-1,2,3,4-tetrahydropyrimidin-5-yl)-4H-1,2,4-triazol-3-yl)benzonitrile], for which the IC50 was 5.5 nM.
Consider `N#Cc1ccc(-n2nccc2-c2cn(-c3cccc(C(F)(F)F)c3)c(=O)n([C@@H]3CNC(=O)C3)c2=O)cc1` [Example 90], for which the IC50 worked out at 353 nM.
With `Cc1c(-c2c(C(=O)N(C)C)cnn2-c2ccc(C#N)cc2)c(=O)n(C(C)C)c(=O)n1-c1cccc(C(F)(F)F)c1` [Example 153] the figure was 5.4 nM; with `CCn1c(=O)c(-c2c(C(=O)N3CC(O)C3)cnn2-c2ccc(C#N)cc2)c(C)n(-c2cccc(C(F)(F)F)c2)c1=O` [Example 156], 10 nM; with `CCn1c(=O)c(-c2c(C(=O)N(C)CCO)cnn2-c2ccc(C#N)cc2)c(C)n(-c2cccc(C(F)(F)F)c2)c1=O` [Example 176], 11.4 nM.
With `COCCNC(=O)c1cnn(-c2ccc(C#N)cc2)c1-c1c(C)n(-c2cccc(C(F)(F)F)c2)c(=O)n(C)c1=O` [Example 178] the figure was 13.5 nM; with `Cc1c(-c2c(C(=O)NC3CC3)cnn2-c2ccc(C#N)cc2)c(=O)n(C)c(=O)n1-c1cccc(C(F)(F)F)c1` [Example 179], 8.7 nM.
With `Cc1c(-c2c(C(=O)OCCCCN(C)C)cnn2-c2ccc(C#N)cc2)c(=O)n(C)c(=O)n1-c1cccc(C(F)(F)F)c1` [Example 187, 4-(dimethylamino)butyl 1-(4-cyanophenyl)-5-(3,6-dimethyl-2,4-dioxo-1-(3-trifluoromethylphenyl)-1,2,3,4-tetrahydropyrimidin-5-yl)-1H-pyrazole-4-carboxylate] the figure was 19.4 nM; with `COC(=O)c1cnn(-c2ccc(C#N)cc2)c1-c1c(C)n(-c2cccc(C(F)(F)F)c2)c(=O)n(C)c1=O` [Example 188], 18.6 nM.
Take `Cc1c(-c2c(S(=O)(=O)O)cnn2-c2ccc(C#N)cc2)c(=O)n(C)c(=O)n1-c1cccc(C(F)(F)F)c1` [Example 191, 1-(4-cyanophenyl)-5-(3,6-dimethyl-2,4-dioxo-1-(3-trifluoromethylphenyl)-1,2,3,4-tetrahydropyrimidin-5-yl)-1H-pyrazole-4-sulfonic acid]: the IC50 was 23.1 nM.
On to `Cc1c(-c2c(S(=O)(=O)O)cnn2-c2ccc(C#N)cc2)c(=O)n(C)c(=O)n1-c1cccc(C(F)(F)F)c1` [Example 196], for which the IC50 was 8.4 nM.
In the case of `Cc1c(-c2c(S(N)(=O)=O)cnn2-c2ccc(C#N)cc2)c(=O)n(C)c(=O)n1-c1cccc(C(F)(F)F)c1` [Example 205, 1-(4-cyanophenyl)-5-(3,6-dimethyl-2,4-dioxo-1-(3-trifluoromethylphenyl)-1,2,3,4-tetrahydropyrimidin-5-yl)-1H-pyrazole-4-sulfonamide], the IC50 was 15 nM.
On to `Cc1c(-c2c(S(N)(=O)=O)cnn2-c2ccc(C#N)cc2)c(=O)n(C(C)C)c(=O)n1-c1cccc(C(F)(F)F)c1` [Example 206], for which the IC50 amounted to 9.3 nM.
With `Cc1c(-c2c(S(N)(=O)=O)cnn2-c2ccc(C#N)cc2)c(=O)n(C)c(=O)n1-c1cccc(C(F)(F)F)c1` [Example 211, (+)-1-(4-cyanophenyl)-5-(3,6-dimethyl-2,4-dioxo-1-(3-trifluoromethylphenyl)-1,2,3,4-tetrahydropyrimidin-5-yl)-1H-pyrazole-4-sulfonamide 0.5 IPA solvates] the figure was 8.8 nM; with `CNS(=O)(=O)c1cnn(-c2ccc(C#N)cc2)c1-c1c(C)n(-c2cccc(C(F)(F)F)c2)c(=O)n(C)c1=O` [Example 218], 14.7 nM.
As to `Cc1c(-c2c(S(=O)(=O)N3CCOCC3)cnn2-c2ccc(C#N)cc2)c(=O)n(C)c(=O)n1-c1cccc(C(F)(F)F)c1` [Example 221], the IC50 is 19.8 nM.
`Cc1c(-c2c(S(=O)(=O)NCCO)cnn2-c2ccc(C#N)cc2)c(=O)n(C)c(=O)n1-c1cccc(C(F)(F)F)c1` [Example 227]: the IC50 came to 7.8 nM.
Take `Cc1c(-c2c(S(=O)(=O)N3CCOC3=O)cnn2-c2ccc(C#N)cc2)c(=O)n(C)c(=O)n1-c1cccc(C(F)(F)F)c1` [Example 239]: the IC50 came out at 7.7 nM.
As for `CCCCC(=O)NS(=O)(=O)c1cnn(-c2ccc(C#N)cc2)c1-c1c(C)n(-c2cccc(C(F)(F)F)c2)c(=O)n(C)c1=O` [Example 243], the IC50 amounted to 5.4 nM.
With `Cc1c(-c2c(S(=O)(=O)NC(=O)c3ccccc3)cnn2-c2ccc(C#N)cc2)c(=O)n(C)c(=O)n1-c1cccc(C(F)(F)F)c1` [Example 249], the IC50 came to 11.9 nM.
Consider `COC(=O)NS(=O)(=O)c1cnn(-c2ccc(C#N)cc2)c1-c1c(C)n(-c2cccc(C(F)(F)F)c2)c(=O)n(C)c1=O` [Example 252], for which the IC50 was found to be 20.6 nM.
As to `CCNC(=O)NS(=O)(=O)c1cnn(-c2ccc(C#N)cc2)c1-c1c(C)n(-c2cccc(C(F)(F)F)c2)c(=O)n(C)c1=O` [Example 257], the IC50 was 7.7 nM.
